Measured values from patent US11512053B2, “Arginine methyltransferase inhibitors and uses thereof” (priority 2013, dated 2022).
Structures can show the parent of a compound that is named as a salt. Where two headings read alike, the source gives them in different places. Blank lines part the entries; values can stand above or below the molecule they belong to.

Experiments:
[1] = system: mono-methyl arginine in RKO cells; experiment: RKO Methylation Assay, In Cell Western (ICW) for detection of mono-methyl arginine and DNA content; assay type: cell-based; details: for EC30: Homo sapiens, RKO, 72 h
From the text: RKO adherent cells were purchased from ATCC (American Type Culture Collection), Manassas, Va., USA. DMEM/Glutamax medium, penicillin-streptomycin, heat inactivated fetal bovine serum, 0.05% trypsin and D-PBS were purchased from Life Technologies, Grand Island, N.Y., USA. Odyssey blocking buffer, 800 CW goat anti-rabbit IgG (H+L) antibody, and Licor Odyssey infrared scanner were purchased from Licor Biosciences, Lincoln, Nebr., USA. Mono-methyl arginine antibody was purchased from Cell Signaling Technology, Danvers, Mass., USA. Methanol was purchased from VWR, Franklin, Mass., USA. 10% Tween 20 was purchased from KPL, Inc., Gaithersburg, Md., USA. DRAQ5 was purchased from Biostatus Limited, Leicestershire, UK.
RKO adherent cells were maintained in growth medium (DMEM/Glutamax medium supplemented with 10% v/v heat inactivated fetal bovine serum and 100 units/mL penicillin-streptomycin) and cultured at 37° C. under 5% CO2.
Cell treatment, In Cell Western (ICW) for detection of mono-methyl arginine and DNA content. […] Compound (100 nL) from a 96-well source plate was added directly to 384 well cell plate. Plates were incubated at 37° C., 5% CO2 for 72 hours. After three days of incubation, plates were brought to room temperature outside of the incubator for ten minutes and blotted on paper towels to remove cell media. 50 μL of ice cold 100% methanol was added directly to each well and incubated for 30 min at room temperature. After 30 min, plates were transferred to a Biotek EL406 plate washer and washed 2 times with 100 μL per well of wash buffer (1×PBS). Next 60 μL per well of Odyssey blocking buffer (Odyssey Buffer with 0.1% Tween 20 (v/v)) were added to each plate and incubated 1 hour at room temperature. Blocking buffer was removed and 20 μL per well of primary antibody was added (mono-methyl arginine diluted 1:200 in Odyssey buffer with 0.1% Tween 20 (v/v)) and plates were incubated overnight (16 hours) at 4° C. Plates were washed 5 times with 100 μL per well of wash buffer. […] The plates were washed 5 times with 100 μL per well wash buffer then 2 times with 100 μL per well of water. Plates were allowed to dry at room temperature then imaged on the Licor Odyssey machine which measures integrated intensity at 700 nm and 800 nm wavelengths. Both 700 and 800 channels were scanned.
Calculations: First, the ratio for each well was determined by:
Each plate included fourteen control wells of DMSO only treatment (minimum activation) as well as fourteen control wells for maximum activation treated with 20 μM of a reference compound. The average of the ratio values for each control type was calculated and used to determine the percent activation for each test well in the plate. Reference compound was serially diluted three-fold in DMSO for a total of nine test concentrations, beginning at 20 μM. Percent activation was determined and EC30 curves were generated using triplicate wells per concentration of compound.

[2] = molecular target: full-length human PRMT8 isoform 1 (Homo sapiens, UniProt Q9NR22); experiment: PRMT8 Biochemical Assay (3H-SAM Flashplate, peptide substrate); details: single experiment or average of multiple experiments; read-out: Biochemical IC50 PRMT8
Chain of full-length human PRMT8 isoform 1 (Q9NR22 whole entry, canonical isoform): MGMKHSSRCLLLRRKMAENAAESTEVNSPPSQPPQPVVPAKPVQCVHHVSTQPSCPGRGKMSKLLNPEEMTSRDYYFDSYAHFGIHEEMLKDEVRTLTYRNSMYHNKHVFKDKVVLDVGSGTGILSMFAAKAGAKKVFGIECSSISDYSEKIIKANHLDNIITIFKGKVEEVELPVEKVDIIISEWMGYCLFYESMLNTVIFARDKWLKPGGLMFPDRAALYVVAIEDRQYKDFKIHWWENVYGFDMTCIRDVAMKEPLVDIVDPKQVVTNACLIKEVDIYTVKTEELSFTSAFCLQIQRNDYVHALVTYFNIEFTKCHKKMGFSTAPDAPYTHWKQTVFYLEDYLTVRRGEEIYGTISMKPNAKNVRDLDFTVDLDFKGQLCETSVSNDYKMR
From the text: (§1) General Materials. S-adenosylmethionine (SAM), S-adenosylhomocysteine (SAH), bicine, Tween20, dimethylsulfoxide (DMSO), bovine skin gelatin (BSG), isopropyl-β-D-thiogalactopyranoside (IPTG), and Tris(2-carboxyethyl)phosphine hydrochloride solution (TCEP) were purchased from Sigma-Aldrich at the highest level of purity possible. ^3H-SAM was purchase from American Radiolabeled Chemicals with a specific activity of 80 Ci/mmol. 384-well streptavidin Flashplates were purchased from PerkinElmer.
Substrates. Peptide representative of human histone H4 residues 31-45 was synthesized with an N-terminal linker-affinity tag motif and a C-terminal amide cap by 21st Century Biochemicals. The peptide was purified by high-performance liquid chromatography (HPLC) to greater than 95% purity and confirmed by liquid chromatography mass spectrometry (LC-MS). The sequence was Biot-Ahx-[…]-amide (SEQ ID NO.:8).
The resulting construct encodes an N-terminal GST tag and a thrombin cleavage sequence ([…] […] […] […] SPEF) (SEQ ID NO.:9) fused directly to Met 1 of PRMT8.
Protein Expression. E. coli (BL21(DE3) Gold, Stratagene) made competent by the CaCl2) method were transformed with the PRMT8 construct and ampicillin selection. Protein over-expression was accomplished by growing the PRMT8 expressing E. coli clone and inducing expression with 0.3 mM IPTG at 16° C. The culture was grown for 12 hours, harvested by centrifugation, and stored at −80° C. for purification.
Protein Purification. […] GST-tagged PRMT8 was eluted with 50 mM Tris, 2 mM glutathione, pH 7.8. Pooled fractions were cleaved by thrombin (10U) and dialysed in buffer A. GST was removed by reloading the cleaved protein sample onto glutathione sepharose column and PRMT8 was collected in the flow-through fractions. PRMT8 was purified further by ceramic hydroxyapatite chromatography. The column was washed with 50 mM phosphate buffer, 100 mM NaCl, 5% glycerol, 5 mM β-mercaptoethanol, pH 7.8 and PRMT8 was eluted by 100 mM phosphate in the same buffer. Protein was concentrated and buffer was exchanged to 50 mM Tris, 300 mM NaCl, 10% glycerol, 5 mM β-mercaptoethanol, pH 7.8 by ultrafiltration. The purity of recovered protein was 89%.
General Procedure for PRMT8 Enzyme Assays on Peptide Substrates. The assays were all performed in a buffer consisting of 20 mM Bicine (pH=7.6), 1 mM TCEP, 0.005% BSG, and 0.002% Tween 20, prepared on the day of use. Compounds in 100% DMSO (1 ul) were spotted into a polypropylene 384-well V-bottom plates (Greiner) using a Platemate Plus outfitted with a 384-channel head (Thermo Scientific). DMSO (1 ul) was added to Columns 11, 12, 23, 24, rows A-H for the maximum signal control and 1 ul of SAH, a known product and inhibitor of PRMT8, was added to columns 11, 12, 23, 24, rows I-P for the minimum signal control. A cocktail (40 ul) containing the PRMT8 enzyme was added by Multidrop Combi (Thermo-Fisher). The compounds were allowed to incubate with PRMT8 for 30 min at room temperature, then a cocktail (10 ul) containing ^3H-SAM and peptide was added to initiate the reaction (final volume=51 ul). The final concentrations of the components were as follows: PRMT8 was 1.5 nM, ^3H-SAM was 50 nM, non-radiolabeled SAM was 550 nM, peptide was 150 nM, SAH in the minimum signal control wells was 1 mM, and the DMSO concentration was 2%. The assays were stopped by the addition of non-radiolabeled SAM (10 ul) to a final concentration of 400 uM, which dilutes the ^3H-SAM to a level where its incorporation into the peptide substrate is no longer detectable. 50 ul of the reaction in the 384-well polypropylene plate was then transferred to a 384-well Flashplate and the biotinylated peptides were allowed to bind to the streptavidin surface for at least 1 hour before being washed once with 0.1% Tween20 in a Biotek ELx405 plate washer. […]

[3] = molecular target: full-length human PRMT6 (Flag- and His-tagged) (Homo sapiens, UniProt Q96LA8); experiment: PRMT6 Biochemical Assay (3H-SAM Flashplate, peptide substrate)
Chain of full-length human PRMT6 (Flag- and His-tagged) (Q96LA8 with tags, fused parts or gaps): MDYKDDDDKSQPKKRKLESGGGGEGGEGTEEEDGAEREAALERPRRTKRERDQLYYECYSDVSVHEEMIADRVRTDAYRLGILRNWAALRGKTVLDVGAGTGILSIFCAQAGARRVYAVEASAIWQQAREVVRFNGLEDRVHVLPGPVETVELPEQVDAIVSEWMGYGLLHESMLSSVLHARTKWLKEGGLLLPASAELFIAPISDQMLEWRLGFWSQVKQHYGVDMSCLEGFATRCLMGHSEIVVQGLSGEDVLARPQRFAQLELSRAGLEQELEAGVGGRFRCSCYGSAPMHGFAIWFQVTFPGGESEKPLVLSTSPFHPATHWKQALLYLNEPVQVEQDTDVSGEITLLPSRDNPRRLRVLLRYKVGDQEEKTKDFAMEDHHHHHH
From the text: as §1, with “sodium butyrate” for “isopropyl-β-D-thiogalactopyranoside (IPTG),”
Substrates. Peptide representative of human histone H4 residues 36-50 was synthesized with an N-terminal linker-affinity tag motif and a C-terminal amide cap by 21st Century Biochemicals. The peptide was purified by high-performance liquid chromatography (HPLC) to greater than 95% purity and confirmed by liquid chromatography mass spectrometry (LC-MS). The sequence was Biot-Ahx-[…]-amide and contained a monomethylated lysine at position 44 (SEQ ID NO.:5).
Molecular Biology: Full-length human PRMT6 (NM_018137.2) transcript clone was amplified from an HEK 293 cDNA library, incorporating a flanking 5′ sequence encoding a FLAG tag ([…]) (SEQ ID NO.:6) fused directly to Ser 2 of PRMT6 and a 3′ sequence encoding a hexa His sequence (HHHHHH) (SEQ ID NO.:17) fused directly to Asp 375. The amplified gene was subcloned into pFastBacMam (Viva Biotech).
Protein Expression. Recombinant baculovirus were generated according to Bac-to-Bac kit instructions (Life Technologies). […] Infections were carried out at 37° C. for 48 hours, harvested by centrifugation, and stored at −80° C. for purification.
Protein Purification. […] Column was washed with 20 mM imidazole in the same buffer and Flag-PRMT6-His was eluted with 150 mM imidazole. Pooled fractions were dialysed against buffer N^1-A and further purified by anti-flag M2 affinity chromatography. Flag-PRMT6-His was eluted with 200 ug/ml FLAG peptide in the same buffer. Pooled fractions were dialysed in 20 mM Tris, 150 mM NaCl, 10% glycerol and 5 mM β-mercaptoethanol, pH 7.8. The purity of recovered protein was 95%.
General Procedure for PRMT6 Enzyme Assays on Peptide Substrates. The assays were all performed in a buffer consisting of 20 mM Bicine (pH=7.6), 1 mM TCEP, 0.005% BSG, and 0.002% Tween 20, prepared on the day of use. Compounds in 100% DMSO (1 ul) were spotted into a polypropylene 384-well V-bottom plates (Greiner) using a Platemate Plus outfitted with a 384-channel head (Thermo Scientific). DMSO (1 ul) was added to Columns 11, 12, 23, 24, rows A-H for the maximum signal control and 1 ul of SAH, a known product and inhibitor of PRMT6, was added to columns 11, 12, 23, 24, rows I-P for the minimum signal control. A cocktail (40 ul) containing the PRMT6 enzyme was added by Multidrop Combi (Thermo-Fisher). The compounds were allowed to incubate with PRMT6 for 30 min at room temperature, then a cocktail (10 ul) containing SAM and peptide was added to initiate the reaction (final volume=51 ul). The final concentrations of the components were as follows: PRMT6 was 1 nM, ^3H-SAM was 200 nM, non-radiolabeled SAM was 250 nM, peptide was 75 nM, SAH in the minimum signal control wells was 1 mM, and the DMSO concentration was 2%. The assays were stopped by the addition of non-radiolabeled SAM (10 ul) to a final concentration of 400 uM, which dilutes the ^3H-SAM to a level where its incorporation into the peptide substrate is no longer detectable. 50 ul of the reaction in the 384-well polypropylene plate was then transferred to a 384-well Flashplate and the biotinylated peptides were allowed to bind to the streptavidin surface for at least 1 hour before being washed once with 0.1% Tween20 in a Biotek ELx405 plate washer. The plates were then read in a PerkinElmer TopCount plate reader to measure the quantity of ^3H-labeled peptide bound to the Flashplate surface, measured as disintegrations per minute (dpm) or alternatively, referred to as counts per minute (cpm). […]

IC50 [2]: 11.6 nM
Compound: CN(CCN)Cc1c[nH]nc1C1CCC(N2CCOCC2)CC1 (stereo not shown) [Compound 43, N^1-methyl-N^1-((3-(4-morpholinocyclohexyl)-1H-pyrazol-4-yl)methyl)ethane-1,2-diamine]
EC30 ([1]; RKO cells, 72 hours incubation, mono-methyl arginine signal normalised to DNA content, single experiment or average of multiple experiments, read-out: In Cell Western EC30): 2600 nM | In Cell Western EC30 ([1]; RKO cells, 72 hours compound incubation, mono-methyl arginine signal normalised to DNA content (DRAQ5), percent activation vs 20 μM reference compound): A (“A” indicates an EC30 ≤ 3.00 μM)

Compound: CCOCC1(COCC)CCC(c2n[nH]cc2CN(C)CCNC)CC1 [Compound 158, ([3-[4,4-bis(ethoxymethyl)cyclohexyl]-1H-pyrazol-4-yl]methyl)(methyl)[2-(methylamino)ethyl]amine hydrochloride salt]
EC30 ([1]; read-out: In Cell Western EC30, RKO cells, 72 hours compound incubation, mono-methyl arginine signal normalised to DNA content (DRAQ5), percent activation vs 20 μM reference compound): < 3000 nM | EC30 ([1]; read-out: In Cell Western EC30, RKO cells, 72 hours incubation, mono-methyl arginine signal normalised to DNA content, single experiment or average of multiple experiments): 8 nM | IC50 ([3]; Biochemical IC50 PRMT6): < 100 nM | IC50 ([3]; Biochemical IC50 PRMT6, single experiment or average of multiple experiments): 91 nM
